Reference: ChEMBL document CHEMBL1137719, “Receptor-based 3D-QSAR studies of checkpoint Wee1 kinase inhibitors” (Eur J Med Chem, 2009)
Values joined by “and” are separate entries in the source; they are usually repeats but may differ in a detail not shown here. Equal values may be shown once.

molecular target: Wee1-like protein kinase (Homo sapiens, UniProt P30291)
Sequence (P30291 whole entry): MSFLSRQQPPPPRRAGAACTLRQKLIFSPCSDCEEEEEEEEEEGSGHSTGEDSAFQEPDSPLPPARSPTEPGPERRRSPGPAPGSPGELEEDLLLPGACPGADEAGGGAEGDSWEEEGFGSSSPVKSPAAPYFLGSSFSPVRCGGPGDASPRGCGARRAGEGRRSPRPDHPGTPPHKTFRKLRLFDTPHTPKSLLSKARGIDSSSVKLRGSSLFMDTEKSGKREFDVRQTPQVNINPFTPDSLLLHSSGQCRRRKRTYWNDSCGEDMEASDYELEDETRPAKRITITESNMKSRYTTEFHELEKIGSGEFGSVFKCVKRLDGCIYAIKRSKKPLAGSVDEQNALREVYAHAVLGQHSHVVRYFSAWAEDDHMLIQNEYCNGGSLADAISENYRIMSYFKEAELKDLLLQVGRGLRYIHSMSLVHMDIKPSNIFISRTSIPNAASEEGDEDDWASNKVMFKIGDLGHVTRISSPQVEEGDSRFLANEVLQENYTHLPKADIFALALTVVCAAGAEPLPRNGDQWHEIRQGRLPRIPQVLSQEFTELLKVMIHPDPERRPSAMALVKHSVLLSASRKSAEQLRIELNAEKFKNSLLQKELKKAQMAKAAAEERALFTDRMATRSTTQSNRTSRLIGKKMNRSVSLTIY

| Compound | IC50 |
| --- | --- |
| O=C1NC(=O)c2c1c(I)cc1[nH]c3ccc(O)cc3c21 | 2340 nM |
| NN1C(=O)c2c(-c3ccccc3)cc3[nH]c4ccc(O)cc4c3c2C1=O | 3980 nM |
| O=C1NC(=O)c2c1c(-c1cccc(O)c1Cl)cc1[nH]c3ccc(O)cc3c21 | 28.2 nM |
| CSc1ccc(-c2cc3[nH]c4ccc(O)cc4c3c3c2C(=O)NC3=O)cc1 | 31600 nM |
| CC(=O)c1cccc(-c2cc3[nH]c4ccc(O)cc4c3c3c2C(=O)NC3=O)c1 | 4370 nM |
| O=C1NC(=O)c2c1c(-c1ccccc1)c(-c1ccccc1)c1[nH]c3ccc(O)cc3c21 | 2340 nM |
| O=C1NC(=O)c2c1cc(-c1ccccc1)c1[nH]c3ccc(O)cc3c21 | 4070 nM |
| O=C1NC(=O)c2c1c(-c1ccccc1Cl)cc1c2c2cc(O)c(CCCCn3cccc3)cc2n1CCO | 24 nM |
| O=C1NC(=O)c2c1c(-c1ccccc1Cl)cc1c2c2c(n1CCO)=CC(OCCCn1cccc1)C(O)(O)C=2 (stereo not given) | 18 nM and 18.2 nM |
| O=C1NC(=O)c2c1c(-c1ccccc1Cl)cc1c2c2cc(O)c(OCCCn3cccc3)cc2n1CCO | 24 nM |
| Cn1c2cc(SCCCn3cccc3)c(O)cc2c2c3c(c(-c4ccccc4Cl)cc21)C(=O)NC3=O | 20 nM |
| O=C1NC(=O)c2c1ccc1c2c2cc(O)ccc2n1CCO | 25.1 nM and 25 nM |
| Cn1c2cc([S+]([O-])CCCn3cccc3)c(O)cc2c2c3c(c(-c4ccccc4Cl)cc21)C(=O)NC3=O (stereo not given) | 33 nM and 33.1 nM |
| O=C1NC(=O)c2c1c(-c1c(Cl)cccc1Cl)cc1c2c2cc(O)ccc2n1CCCC(=O)N1CCOCC1 | 64.6 nM and 64 nM |
| O=C1NC(=O)c2c1c(-c1c(Cl)cccc1Cl)cc1c2c2cc(O)ccc2n1CCCC(=O)n1ccnc1 | 58.9 nM and 59 nM |
| O=C1NC(=O)c2c1ccc1c2c2cc(O)ccc2n1CCCNc1ccccc1 | 93.3 nM and 93 nM |
| CN(C)CCNC(=O)CCn1c2ccc(O)cc2c2c3c(ccc21)C(=O)NC3=O | 170 nM |
| CN1CCN(CCCn2c3ccc(O)cc3c3c4c(ccc32)C(=O)NC4=O)CC1 | 302 nM and 300 nM |
| NC(=O)CCn1c2ccc(O)cc2c2c3c(ccc21)C(=O)NC3=O | 20.9 nM and 21 nM |
| O=C1NC(=O)c2c1c(-c1ccc(-c3ccccc3)cc1)cc1[nH]c3ccc(O)cc3c21 | 40000 nM |
| O=C1NC(=O)c2c1c(-c1ccccc1Cl)cc1[nH]c3cc(OCCCn4cccc4)c(O)cc3c21 | 36 nM and 36.3 nM |
| O=C1NC(=O)c2c1c(-c1ccccc1Cl)cc1c2c2cc(O)ccc2n1CCC(=O)N1CCOCC1 | 64.6 nM and 64 nM |
| O=C1NC(=O)c2c1c(-c1c(Cl)cccc1Cl)cc1c2c2cc(O)ccc2n1CCC(=O)N1CCOCC1 | 110 nM |

| Compound | IC50 |
| --- | --- |
| O=C1NC(=O)c2c1c(-c1ccccc1Cl)cc1c2c2cc(O)ccc2n1CC[S+]([O-])n1ccnn1 (stereo not given) | 9 nM and 8.91 nM |
| O=C1NC(=O)c2c1c(-c1c(Cl)cccc1Cl)cc1c2c2cc(O)ccc2n1CCC(=O)n1ccnc1 | 120 nM |
| Nc1cc(-c2cc3[nH]c4ccc(O)cc4c3c3c2C(=O)NC3=O)ccc1Cl | 24 nM |
| O=C1NC(=O)c2c1c(-c1ccccc1Cl)cc1c2c2cc(O)ccc2n1CCS(=O)(=O)n1ccnn1 | 19 nM and 19.1 nM |
| O=C1NC(=O)c2c1ccc1c2c2cc(O)ccc2n1CCC(=O)n1ccnc1 | 229 nM and 230 nM |
| O=C1NC(=O)c2c1ccc1c2c2cc(O)ccc2n1CCC(=O)N1CCOCC1 | 140 nM and 141 nM |
| CN(C)CCCn1c2ccc(O)cc2c2c3c(ccc21)C(=O)NC3=O | 360 nM and 363 nM |
| Cn1c2cc(CCCCn3cccc3)c(O)cc2c2c3c(c(-c4ccccc4Cl)cc21)C(=O)NC3=O | 36 nM and 36.3 nM |
| Cn1c2ccc(O)cc2c2c3c(ccc21)C(=O)NC3=O | 141 nM and 140 nM |
| O=C1NC(=O)c2c1ccc1c2c2cc(O)ccc2n1CCCO | 200 nM |
| Cn1c2cc(S(=O)(=O)NCCn3cccc3)c(O)cc2c2c3c(c(-c4ccccc4Cl)cc21)C(=O)NC3=O | 46 nM and 45.7 nM |
| O=C1NC(=O)c2c1c(-c1ccccc1Cl)cc1[nH]c3cc(CCCCn4cccc4)c(O)cc3c21 | 50 nM and 50.1 nM |
| CNCCCn1c2ccc(O)cc2c2c3c(ccc21)C(=O)NC3=O | 282 nM and 280 nM |
| O=C1NC(=O)c2c1ccc1c2c2cc(O)ccc2n1CCCC(=O)N1CCOCC1 | 288 nM and 290 nM |
| CN(C)CCn1c2ccc(O)cc2c2c3c(ccc21)C(=O)NC3=O | 200 nM |
| O=C(O)CCn1c2ccc(O)cc2c2c3c(ccc21)C(=O)NC3=O | 22.9 nM and 23 nM |
| O=C1NC(=O)c2c1c(-c1ccccc1Cl)cc1c2c2cc(O)ccc2n1CCC(=O)n1ccnc1 | 91.2 nM and 92 nM |
| Cn1c2cc(S(=O)(=O)CCCn3cccc3)c(O)cc2c2c3c(c(-c4ccccc4Cl)cc21)C(=O)NC3=O | 160 nM and 158 nM |
| O=C1NC(=O)c2c1ccc1c2c2cc(O)ccc2n1CCCC(=O)n1ccnc1 | 110 nM |
| O=C1NC(=O)c2c1c(-c1ccccc1Cl)cc1c2c2cc(O)ccc2n1CCSn1ccnn1 | 24 nM |
| CS(=O)(=O)c1ccc(-c2cc3[nH]c4ccc(O)cc4c3c3c2C(=O)NC3=O)cc1 | 1120 nM and 1100 nM |
| O=C1NC(=O)c2c1c(-c1ccccc1Cl)cc1c2c2cc(O)ccc2n1CCCC(=O)n1ccnc1 | 54 nM and 53.7 nM |
